Results published in patent US9650340B2, “5-fluoro-N-(pyridin-2-yl)pyridin-2-amine derivatives containing a sulfoximine group” (BAYER PHARMA AKTIENGESELLSCHAFT, priority 2012, dated 2017).
Where a name gives a salt, the structure may show the parent alone.

Tests used:
[1] = molecular target: T1, CDK2/CycE (Homo sapiens, UniProt P24941); experiment: CDK2/CycE high ATP kinase assay (TR-FRET, 2 mM ATP); assay type: biochemical; details: Method 2b
T1 construct: GST; purchased ProQinase GmbH (Freiburg, Germany); host or cells: insect cells (Sf9)
Procedure: 2b. CDK2/CycE High ATP Kinase Assay:
CDK2/CycE-inhibitory activity of compounds of the present invention at 2 mM adenosine-tri-phosphate (ATP) was quantified employing the CDK2/CycE TR-FRET (TR-FRET=Time Resolved Fluorescence Energy Transfer) assay as described in the following paragraphs.
Recombinant fusion proteins of GST and human CDK2 and of GST and human CycE, expressed in insect cells (Sf9) and purified by Glutathion-Sepharose affinity chromatography, were purchase from ProQinase GmbH (Freiburg, Germany). As substrate for the kinase reaction biotinylated peptide biotin-Ttds-[…] (C-terminus in amid form) was used which can be purchased e.g. form the company JERINI peptide technologies (Berlin, Germany).
For the assay 50 nl of a 100 fold concentrated solution of the test compound in DMSO was pipetted into a black low volume 384 well microtiter plate (Greiner Bio-One, Frickenhausen, Germany), 2 μl of a solution of CDK2/CycE in aqueous assay buffer [50 mM Tris/HCl pH 8.0, 10 mM MgCl2, 1.0 mM dithiothreitol, 0.1 mM sodium ortho-vanadate, 0.01% (v/v) Nonidet-P40 (Sigma)] were added and the mixture was incubated for 15 min at 22° C. to allow pre-binding of the test compounds to the enzyme before the start of the kinase reaction. Then the kinase reaction was started by the addition of 3 μl of a solution ATP (3.33 mM=>final conc. in the 5 μl assay volume is 2 mM) and substrate (1.25 μM=>final conc. in the 5 μl assay volume is 0.75 μM) in assay buffer and the resulting mixture was incubated for a reaction time of 25 min at 22° C. The concentration of CDK2/CycE was adjusted depending of the activity of the enzyme lot and was chosen appropriate to have the assay in the linear range, typical concentrations were in the range of 15 ng/ml. The reaction was stopped by the addition of 5 μl of a solution of TR-FRET detection reagents (0.2 μM streptavidine-XL665 [Cisbio Bioassays, Codolet, France] and 1 nM anti-RB(pSer807/pSer811)-antibody from BD Pharmingen [#558389] and 1.2 nM LANCE EU-W1024 labeled anti-mouse IgG antibody [Perkin-Elmer, product no. AD0077, as an alternative a Terbium-cryptate-labeled anti-mouse IgG antibody from Cisbio Bioassays can be used]) in an aqueous EDTA-solution (100 mM EDTA, 0.2% (w/v) bovine serum albumin in 100 mM HEPES/NaOH pH 7.0).
The resulting mixture was incubated 1 h at 22° C. to allow the formation of complex between the phosphorylated biotinylated peptide and the detection reagents. Subsequently the amount of phosphorylated substrate was evaluated by measurement of the resonance energy transfer from the Eu-chelate to the streptavidine-XL. Therefore, the fluorescence emissions at 620 nm and 665 nm after excitation at 350 nm were measured in a TR-FRET reader, e.g. a Rubystar (BMG Labtechnologies, Offenburg, Germany) or a Viewlux (Perkin-Elmer). The ratio of the emissions at 665 nm and at 622 nm was taken as the measure for the amount of phosphorylated substrate.

[2] = tested on: MOLM-13 human acute myeloid leukemia cells; experiment: Proliferation assay, MOLM-13 (Cell Titre-Glo); assay type: cell-based; details: Homo sapiens, MOLM-13, 72 h, MOLM-13, 72-hour exposure; read-out: Inhibition of MOLM-13 cell proliferation IC50
Procedure: Cultivated tumour cells (HeLa, human cervical tumour cells, ATCC CCL-2; NCI-H460, human non-small cell lung carcinoma cells, ATCC HTB-177; A2780, human ovarian carcinoma cells, ECACC #93112519; DU 145, hormone-independent human prostate carcinoma cells, ATCC HTB-81; HeLa-MaTu-ADR, multidrug-resistant human cervical carcinoma cells, EPO-GmbH Berlin; Caco-2, human colorectal carcinoma cells, ATCC HTB-37; B16F10, mouse melanoma cells, ATCC CRL-6475) were plated at a density of 5,000 cells/well (DU145, HeLa-MaTu-ADR), 3,000 cells/well (NCI-H460, HeLa), 2,500 cells/well (A2780), 1,500 cells/well (Caco-2), or 1,000 cells/well (B16F10) in a 96-well multititer plate in 200 μL of their respective growth medium supplemented 10% fetal calf serum. After 24 hours, the cells of one plate (zero-point plate) were stained with crystal violet (see below), while the medium of the other plates was replaced by fresh culture medium (200 μl), to which the test substances were added in various concentrations (0 μM, as well as in the range of 0.001-10 μM; the final concentration of the solvent dimethyl sulfoxide was 0.5%). The cells were incubated for 4 days in the presence of test substances. Cell proliferation was determined by staining the cells with crystal violet: the cells were fixed by adding 20 μl/measuring point of an 11% glutaric aldehyde solution for 15 minutes at room temperature. After three washing cycles of the fixed cells with water, the plates were dried at room temperature. The cells were stained by adding 100 μl/measuring point of a 0.1% crystal violet solution (pH 3.0). After three washing cycles of the stained cells with water, the plates were dried at room temperature. The dye was dissolved by adding 100 μl/measuring point of a 10% acetic acid solution. The extinction was determined by photometry at a wavelength of 595 nm. The change of cell number, in percent, was calculated by normalization of the measured values to the extinction values of the zero-point plate (=0%) and the extinction of the untreated (0 μm) cells (=100%). The IC50 values (inhibitory concentration at 50% of maximal effect) were determined by means of a 4 parameter fit. Non-adherent MOLM-13 human acute myeloid leukemia cells (DSMZ ACC 554) were seeded at a density of 5,000 cells/well in a 96-well multititer plate in 100 μL of growth medium supplemented 10% fetal calf serum. After 24 hours, cell viability of one plate (zero-point plate) was determined with the Cell Titre-Glo Luminescent Cell Viability Assay (Promega), while 50 μL of test compound containing medium was added to the wells of the other plates (final concentrations in the range of 0.001-10 μM and DMSO controls; the final concentration of the solvent dimethyl sulfoxide was 0.5%). Cell viability was assessed after 72-hour exposure with the Cell Titre-Glo Luminescent Cell Viability Assay (Promega).

## COc1cc(F)ccc1-c1cc(Nc2cc(CS(C)(=N)=O)ccn2)ncc1F (racemic) [Example 1, (rac)-5-Fluoro-4-(4-fluoro-2-methoxyphenyl)-N-{4-[(S-methylsulfonimidoyl)methyl]pyridin-2-yl}pyridin-2-amine]
[1]
  IC50: 5860 nM
[2]
  IC50: 19 nM

## COc1cc(F)ccc1-c1cc(Nc2cc(CS(C)(=N)=O)cc(C)n2)ncc1F (racemic) [Example 4, (rac)-5-Fluoro-4-(4-fluoro-2-methoxyphenyl)-N-{6-methyl-4-[(S-methylsulfonimidoyl)methyl]pyridin-2-yl}pyridin-2-amine]
[1]
  IC50: 1010 nM
[2]
  IC50: 35 nM

## COc1cc(CS(C)(=N)=O)cc(Nc2cc(-c3ccc(F)cc3OC)c(F)cn2)n1 (racemic) [Example 6, (rac)-5-Fluoro-4-(4-fluoro-2-methoxyphenyl)-N-{6-methoxy-4-[(S-methylsulfonimidoyl)methyl]pyridin-2-yl}pyridin-2-amine]
[1]
  IC50: 84 nM
[2]
  IC50: 11 nM

## COc1cc(F)ccc1-c1cc(Nc2cc(CS(C)(=N)=O)cc(Cl)n2)ncc1F (racemic) [Example 7, (rac)-N-{6-Chloro-4-[(S-methylsulfonimidoyl)methyl]pyridin-2-yl}-5-fluoro-4-(4-fluoro-2-methoxyphenyl)pyridin-2-amine]
[1]
  IC50: 630 nM
[2]
  IC50: 28 nM

## COc1cc(F)ccc1-c1cc(Nc2cc(CS(=N)(=O)CCO)ccn2)ncc1F (racemic) [Example 8, (rac)-2-{S-[(2-{[5-Fluoro-4-(4-fluoro-2-methoxyphenyl)pyridin-2-yl]amino}pyridin-4-yl)methyl]sulfonimidoyl}ethanol]
[1]
  IC50: 4190 nM
[2]
  IC50: 55 nM

## COc1cc(F)ccc1-c1cc(Nc2cc(CS(=N)(=O)CCN)ccn2)ncc1F (racemic) [Example 9, (rac)-N-(4-{[S-(2-Aminoethyl)sulfonimidoyl]methyl}pyridin-2-yl)-5-fluoro-4-(4-fluoro-2-methoxyphenyl)pyridin-2-amine]
[1]
  IC50: 4230 nM
[2]
  IC50: 120 nM

## CCOC(=O)N=S(C)(=O)Cc1ccnc(Nc2cc(-c3ccc(F)cc3OC)c(F)cn2)c1 (racemic) [Example 11, (rac)-Ethyl{[(2-{[5-fluoro-4-(4-fluoro-2-methoxyphenyl)pyridin-2-yl]amino}pyridin-4-yl)methyl](methyl)oxido-λ^6-sulfanylidene}carbamate]
[1]
  IC50: 2920 nM
[2]
  IC50: 42 nM

## CCNC(=O)N=S(C)(=O)Cc1ccnc(Nc2cc(-c3ccc(F)cc3OC)c(F)cn2)c1 (racemic) [Example 12, (rac)-1-Ethyl-3-{[(2-{[5-fluoro-4-(4-fluoro-2-methoxyphenyl)pyridin-2-yl]amino}pyridin-4-yl)methyl](methyl)oxido-λ^6-sulfanylidene}urea]
[1]
  IC50: 3070 nM
[2]
  IC50: 29 nM

## COc1cc(F)ccc1-c1cc(Nc2cc(CS(C)(=O)=NC(C)=O)ccn2)ncc1F (racemic) [Example 13, (rac)-N-{[(2-{[5-Fluoro-4-(4-fluoro-2-methoxyphenyl)pyridin-2-yl]amino}pyridin-4-yl)methyl](methyl)oxido-λ^6-sulfanylidene}acetamide]
[1]
  IC50: 3690 nM
[2]
  IC50: 29 nM

## COc1cc(F)ccc1-c1cc(Nc2cc(CS(C)(=N)=O)cc(F)n2)ncc1F (racemic) [Example 17, (rac)-5-Fluoro-4-(4-fluoro-2-methoxyphenyl)-N-{6-fluoro-4-[(S-methylsulfonimidoyl)methyl]pyridin-2-yl}pyridin-2-amine]
[1]
  IC50: 886 nM
[2]
  IC50: 20 nM

## COc1cc(F)ccc1-c1cc(Nc2cc(CS(C)(=N)=O)cc(C(F)(F)F)n2)ncc1F (racemic) [Example 21, (rac)-5-Fluoro-4-(4-fluoro-2-methoxyphenyl)-N-{4-[(S-methylsulfonimidoyl)methyl]-6-(trifluoromethyl)pyridin-2-yl}pyridin-2-amine]
[1]
  IC50: 133 nM
[2]
  IC50: 17 nM

## CCOc1cc(F)ccc1-c1cc(Nc2cc(CS(C)(=N)=O)cc(F)n2)ncc1F (racemic) [Example 26, (rac)-4-(2-Ethoxy-4-fluorophenyl)-5-fluoro-N-{6-fluoro-4-[(S-methylsulfonimidoyl)methyl]pyridin-2-yl}pyridin-2-amine]
[1]
  IC50: 1200 nM
[2]
  IC50: 44 nM

## COc1cc(F)ccc1-c1cc(Nc2cc(CS(C)(=O)=NC#N)ccn2)ncc1F (single isomer, unassigned) [Example 10, {[(2-{[5-Fluoro-4-(4-fluoro-2-methoxyphenyl)pyridin-2-yl]amino}pyridin-4-yl)methyl](methyl)oxido-λ^6-sulfanylidene}cyanamide]
[1]
  IC50: 1420 nM
[2]
  IC50: 12 nM

## COc1cc(F)ccc1-c1cc(Nc2cc(CS(C)(=N)=O)ccn2)ncc1F (single isomer, unassigned; (+)) [Example 2, (+)-5-Fluoro-4-(4-fluoro-2-methoxyphenyl)-N-{4-[(S-methylsulfonimidoyl)methyl]pyridin-2-yl}pyridin-2-amine]
[1]
  IC50: 2920 nM
[2]
  IC50: 29 nM

## COc1cc(F)ccc1-c1cc(Nc2cc(CS(C)(=N)=O)ccn2)ncc1F (single isomer, unassigned; enantiomer 1) [Example 16, 5-Fluoro-4-(4-fluoro-2-methoxyphenyl)-N-{4-[(S-methylsulfonimidoyl)methyl]pyridin-2-yl}pyridin-2-amine hydrochloride; enantiomer 1]
[1]
  IC50: 5150 nM

## COc1cc(F)ccc1-c1cc(Nc2cc(CS(C)(=N)=O)ccn2)ncc1F.Cl (single isomer, unassigned; enantiomer 2) [Example 14, 5-Fluoro-4-(4-fluoro-2-methoxyphenyl)-N-{4-[(S-methylsulfonimidoyl)methyl]pyridin-2-yl}pyridin-2-amine hydrochloride; enantiomer 2]
[1]
  IC50: 3410 nM
